Test results taken from patent US12055539B2, “HDAC1/2 activator for promoting and/or accelerating myelination and/or remyelination” (UNIVERSITE DE FRIBOURG, priority 2017, dated 2024).
“Also recorded” adds a separate entry of the source.

Tests used:
HDAC1/2 [1] = test: Subcellular fractionation, IP and Western blot in de-differentiated rat Schwann cells; assay type: cell-based
Description: Purified primary rat Schwann cell cultures were obtained as described (ref. 5). Rat Schwann cells were then grown in proliferation medium: DMEM containing 10% Fetal calf serum (FCS, Gibco), 1:500 penicillin/streptomycin (Invitrogen), 4 μg/m1 crude GGF (bovine pituitary extract, Bioconcept), and 2 μM forskolin (Sigma), at 37° C. and 5% CO2/95% air. Schwann cell de-differentiation culture protocol was previously described (ref. 6). Briefly, Schwann cells were first growth-arrested in defined medium (DM, ref. 5) for 8 to 15 h, then 1 mM dbcAMP (Sigma) was added to induce differentiation. Cells were incubated in this medium for another 3 days. The medium was then changed to DM only without dbcAMP, and incubated in this medium for 3 days (differentiation mimicking adult Schwann cell stage). To induce de-differentiation, cells were then changed to proliferation medium and incubated in this medium for 3 days.
Two 15-cm culture plates of confluent de-differentiated rat Schwann cells were used per IP. Cells were either treated with 0.6 μM Mocetinostat (HDAC1/2 inhibitor) or its vehicle for 3 days in de-differentiation medium. Cells were washed with PBS and submitted to subcellular fractionation to separate the nuclear from the cytoplasmic fractions. IPs were then carried out on each fraction nuclear and cytoplasmic, as described above. Immunoprecipitating antibodies: 2.5 μg of eEF1A1 (rabbit, Abcam, cat. # ab157455), Sox10 (rabbit, DCS Innovative Diagnostik-Systeme, cat. # 51058C01) or GFP (rabbit, Abcam, cat. # ab290) antibodies were used per IP. Rabbit anti-GFP antibody was used as negative control IP. Acetylation of eEF1A1 and co-immunoprecipitation of acetylated eEF1A with Sox10 were detected using EEF1A-pan (Acetyl-Lys41) primary antibody (rabbit, Assay Biotech, 1:1000, cat. # D12106). Co-immunoprecipitation of HDAC2 with eEF1A1 was detected using an HDAC2 antibody (mouse, Sigma, 1:1000, cat. # H2663). Light chain-specific goat anti-rabbit-HRP or anti-mouse-HRP secondary antibodies (Jackson ImmunoResearch) were used. Detection was done with Immobilon Western Chemiluminescent HRP Substrate (Millipore). Inputs of the IPs were assayed on lysates used for IPs. GAPDH (mouse, Gene Tex, 1:5000, cat. # GTX28245) and LaminA/C (mouse, Sigma, 1:2000, cat. # SAB4200236) antibodies were used to evaluate the efficiency of cytoplasmic and nuclear fractionation.

HDAC1/2 [2] = test: Immunofluorescence of spinal cord after intrathecal HDAC1/2 inhibitor; assay type: in vivo, mouse; details: single intrathecal injection 10 mg/kg, spinal cord collected after 24 h, vs vehicle
Description: For immuno fluorescence, adult mice were treated with a single intratechal injection of 10 mg/kg Mocetinostat (HDAC1/2 inhibitor) or its vehicle and their spinal cord was collected 24 h after injection. Mice were killed and perfused with 4% PFA and their spinal cord was processed as described above in Example 8. Primary antibody: EEF1A-pan (Acetyl-Lys41) antibody (rabbit, Assay Biotech, 1:1000, cat. # D12106), CC1 (mouse, 1:200, Calbiochem/Millipore, cat. # OP80).

HDAC1/2 [3] = test: Acetyl-lysine immunoprecipitation and LC-MS/MS of sciatic nerves after crush lesion; assay type: in vivo, mouse; details: 10 mg/kg in pelvic cavity after sciatic nerve crush, nerves collected 24 h later, compared to vehicle
Description: Sciatic nerve crush lesions were carried out in adult mice (3-4 month old) with the following procedure: Isoflurane (3% for induction, 1.5-2% for narcosis during operation) was used for anesthesia. For analgesia, 0.1 mg/kg buprenorphine (Temgesic; Essex Chemie) was administered by i.p. injection 1 h before lesion and 12 hours after the operation. An incision was made at the height of the hip and the sciatic nerve was exposed on one side. The nerve was crushed (5×10 sec with crush forceps: Ref FST 00632-11) and the wound was closed using Histoacryl Tissue Glue (BBraun). After the operation, mice were wrapped in paper towels and placed on a warming pad until recovery from anesthesia.
For immunoprecipitation (IP), the injured sciatic nerve was collected from the lesion site to around 12 mm distal to the lesion site (region where the nerve splits into the three branches of tibial, sural and common peroneal nerves). After perineurium removal, sciatic nerves were frozen in liquid nitrogen, pulverized with a chilled mortar and pestle, lysed in radiolP assay (RIPA) buffer (10 mM Tris/HCl, pH 7.4, 150 mM NaCl, 50 mM NaF, 100 mM NaVO4, 1 mM EDTA, 0.5% wt/vol sodium deoxycholate, and 0.5% Nonidet P-40) for 15 min on ice, and centrifuged to pellet debris. Supernatants were collected and pre-cleared for 1 h with 30 gl protein A/G PLUS agarose beads (Santa Cruz Biotechnology). […]

[4] = system: mice after sciatic nerve crush lesion; test: Rotarod after sciatic nerve crush lesion; assay type: in vivo, mouse; details: 15 rpm, 10 mg/kg/day i.p. from 9 to 13 dpl, vs vehicle
Description: (§1) Adult mice were treated with theophylline or vehicle as described above in Example 4 from 9 to 13 days post sciatic nerve crush lesion (carried out as described above in Example 1). Mice were placed three times on the Rotarod apparatus at a fixed speed of 15 rpm to test balance and motor coordination, at 14 and 30 dpl. The duration of each trial was limited to 600 s, and trials were separated by a 30 min recovery period. Latency to fall from the rotating beam was recorded and the average of the three trials was used for quantification. Recovery of sensory function was tested at 14 and 30 dpl by toe pinch test: each toe of the rear foot on the right side (lesioned side) was pinched with equal pressure applied by the same experimenter using flat tip forceps. Immediate withdrawal was recorded as functional sensitivity of the pinched toe. […] All mice were between 3 and 4 months old. The experimenter was blinded regarding the treatment that mice received.

[5] = system: lysolecithin demyelinating lesion of the spinal cord; test: Electron microscopy of spinal cord after lysolecithin lesion (remyelination); assay type: in vivo, mouse; details: 14 and 30 dpl, treated 9 to 13 days post lysolecithin lesion, vs vehicle
Description: For electron microscopy analyses, adult mice were submitted to a lysolecithin lesion and treated with theophylline or vehicle, as described above in Example 8. Mice were killed at 14 dpl or 30 dpl with 150 mg/kg pentobarbital i.p. (Esconarkon; Streuli Pharma AG) and perfused with 3% PFA and 0.15% glutaraldehyde in 0.1 M phosphate buffer, pH 7.4. Spinal cords were collected and processed as described above in Example 6.

HDAC2 [6] = biological target: T1, HDAC2 (Mus musculus, UniProt P70288); test: Western blot of sciatic nerve lysates after sciatic nerve crush lesion; assay type: in vivo; details: 10 mg/kg/day i.p. from 9 to 13 dpl, 14 and/or 30 dpl, vs vehicle
T1 construct: from tissue; host or cells: mouse sciatic nerve (adult after crush; P4 control and Schwann-cell HDAC1/2 dKO pups)
T1 sequence (P70288 whole entry): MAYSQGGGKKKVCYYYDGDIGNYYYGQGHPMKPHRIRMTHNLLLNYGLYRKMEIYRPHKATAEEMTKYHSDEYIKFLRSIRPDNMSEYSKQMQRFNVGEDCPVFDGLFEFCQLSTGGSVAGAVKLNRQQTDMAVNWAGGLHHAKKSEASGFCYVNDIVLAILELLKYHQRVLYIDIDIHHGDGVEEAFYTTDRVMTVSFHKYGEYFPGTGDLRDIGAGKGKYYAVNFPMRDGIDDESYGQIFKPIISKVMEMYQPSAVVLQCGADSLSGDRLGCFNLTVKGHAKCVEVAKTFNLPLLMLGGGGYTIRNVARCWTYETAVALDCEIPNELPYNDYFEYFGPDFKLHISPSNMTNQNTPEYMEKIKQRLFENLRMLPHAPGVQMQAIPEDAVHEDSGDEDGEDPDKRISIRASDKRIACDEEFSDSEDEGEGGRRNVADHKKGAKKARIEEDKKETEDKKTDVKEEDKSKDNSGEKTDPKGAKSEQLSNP
Description: Adult mice were treated with intraperitoneal injection of 10 mg/kg/day theophylline or its vehicle from 9 to 13 days post sciatic nerve crush lesion. At 14 days post lesion (dpl) the injured sciatic nerve (“crush”) was collected, as well as the same region of the contralateral nerve (“contra”) as internal control for each animal. After perineurium removal, sciatic nerves were frozen in liquid nitrogen, pulverized with a chilled mortar and pestle, lysed in RIPA buffer for 15 min on ice, and centrifuged to pellet debris. Supernatants were collected, and protein concentration was determined by Lowry Protein assay (Bio-Rad Laboratories). Sciatic nerves were submitted to SDS-PAGE and analysed by Western blot. Primary antibodies: HDAC2 (mouse, 1:1000, Sigma, cat. # H2663), Sox10 (rabbit, 1:250, DCS Innovative Diagnostik-Systeme, cat. # SI058C01), GAPDH (glyceraldehyde-3-phosphate-dehydrogenase, mouse, 1:5000, Genetex, cat. # GTX28245), P0 (chicken, 1:1000, Ayes Labs, cat. # PZO), Krox20 (rabbit, 1:500, Axxora, cat. # CO-PRB-236P-100). All secondary antibodies were from Jackson ImmunoResearch: light chain-specific goat anti-mouse-HRP (horse radish peroxidase) and goat anti-rabbit-HRP, and heavy chain-specific goat anti-chicken-HRP.

HDAC2 [7] = biological target: T1, HDAC2; test: Immunofluorescence of lysolecithin lesion site in dorsal funiculus of spinal cord; assay type: in vivo; details: 14 dpl, treated 9 to 13 days post lysolecithin lesion, vs vehicle
Description: A focal demyelinating lesion was induced in the dorsal funiculus of the spinal cord of adult mice by injection of lysolecithin (1 μl at 1%), as described (ref. 9). This demyelination model is used as a model of multiple sclerosis lesion and is well characterized, the kinetics of demyelination and remyelination being well known. Mice were treated as described above in Example 4 with theophylline or vehicle for 4 days from 9 to 13 days post lysolecithin lesion, when OLP start to re-differentiate to remyelinate demyelinated axons. Mice were killed with 150 mg/kg pentobarbital i.p. (Esconarkon; Streuli Pharma AG) and perfused with 4% PFA. Spinal cords were collected, post-fixed for 2 h in 4% PFA, incubated in 30% sucrose overnight at 4° C., embedded in OCT compound and stored at −80° C. Spinal cords were then processed as sciatic nerves for immunofluorescence, as described in Example 2. Primary antibodies: HDAC2 (rabbit, 1:200, Santa Cruz Biotechnology, cat. # sc-7899), CC1 (mouse, 1:200, Calbiochem/Millipore, cat. # OP80), MBP (rat, 1:500, Serotec, cat. # MCA409S), Sox10 (rabbit, 1:250, DCS Innovative Diagnostik-Systeme, cat. # SI058C01).

crushed sciatic nerves = test: Electron microscopy of crushed sciatic nerves, myelin thickness (g-ratio); assay type: in vivo, mouse; details: 10 mg/kg/day i.p. from 9 to 13 dpl, vs vehicle; for myelin sheath thickness: 10 mg/kg/day
Description: Adult mice were treated with theophylline or vehicle as described above in Example 4 from 9 to 13 days post sciatic nerve crush lesion. Injured sciatic nerves were collected for morphological analysis by electron microscopy. Briefly, mice were killed with 150 mg/kg pentobarbital i.p. (Esconarkon; Streuli Pharma AG) and sciatic nerves were fixed in situ with 3% paraformaldehyde and 0.15% glutaraldehyde in 0.1 M phosphate buffer, pH 7.4. Fixed tissues were post-fixed in 2% osmium tetroxide, dehydrated through a graded acetone series as described previously (ref. 7), and embedded in Spurr's resin (Electron Microscopy Sciences). Ultrathin cross-sections (90-nm thick) were made, as described (ref. 7). All analyses were done at 5 mm distal to the lesion site. No contrasting reagent was applied. Images were acquired using a Philips CM 100 BIOTWIN equipped with a Morada side-mounted digital camera (Olympus). The g-ratio of at least 50 axons was measured per animal and 3 animals per group (theophylline or vehicle) were used at 14 dpl. At 30 dpl, only 2 animals were used (more animals will be added at 30 days post lesion for statistical analyses).

[8] = system: mice after sciatic nerve crush lesion; test: Toe pinch test after sciatic nerve crush lesion; assay type: in vivo, mouse; details: 10 mg/kg/day i.p. from 9 to 13 dpl, vs vehicle
Description: as §1

multiple sclerosis = test: Contemplative combination treatment of MS patients; assay type: in vivo, human
Description: In this contemplative example, a group of female and male patients suffering from MS receiving theophylline [250 mg/day] during 1 month in addition to the standard treatment of interferon-β1a.

HDAC2 [9] = test: Western blot of P4 sciatic nerve lysates of control and HDAC1/2 dKO mice; assay type: in vivo, mouse; details: control mice, 10 mg/kg s.c. once a day for 3 days from P1, nerves at P4
Description: In P1 control and dKO mice (as described in Example 2), 10 mg/kg theophylline or its vehicle were injected subcutaneously once a day for 3 days. Sciatic nerves were collected at P4. After perineurium removal, sciatic nerves were frozen in liquid nitrogen, pulverized with a chilled mortar and pestle, lysed in RIPA buffer for 15 min on ice, and centrifuged to pellet debris. Supernatants were collected, submitted to SDS-PAGE and analysed by Western blot. Primary antibodies: HDAC2 (mouse, 1:1000, Sigma, cat. # H2663), Sox10 (rabbit, 1:250, DCS Innovative Diagnostik-Systeme, cat. # SI058C01), GAPDH (glyceraldehyde-3-phosphate-dehydrogenase, mouse, 1:5000, Genetex, cat. # GTX28245), P0 (chicken, 1:1000, Ayes Labs, cat. # PZO). Secondary antibodies were from Jackson ImmunoResearch: light chain-specific goat anti-mouse-HRP (horse radish peroxidase) and goat anti-rabbit-HRP, and heavy chain-specific goat anti-chicken-HRP.

[10] = 0.6 μM for 3 days in de-differentiation medium

In the case of Nc1ccccc1NC(=O)c1ccc(CNc2nccc(-c3cccnc3)n2)cc1 [Mocetinostat], the “Sox10 expression in the nuclear compartment” value (HDAC1/2 [1]; [10]) is reported as “strong decrease”, the Sox10 localization (HDAC1/2 [1]; [10]) is reported as “partially re-localized from the nuclear to the cytoplasmic compartment” and the “acetylated eEF1A1 levels” value (HDAC1/2 [1]; 0.6 μM for 3 days in de-differentiation medium, vs vehicle, predominantly nuclear) is reported as “strong increase”. For the same molecule, the “interaction (co-immunoprecipitation) of acetylated eEF1A with Sox10” value (HDAC1/2 [1]; 0.6 μM for 3 days, nuclear and cytoplasmic fractions) was “potentiated”, the “acetylated eEF1A in mature oligodendrocytes (CC1+)” value (HDAC1/2 [2]) was “robust increase; also recorded: accumulation of Ace-eEF1A in the nuclei of oligodendrocytes” and the “abundance of eEF1A1 peptides after immunoprecipitation with anti-acetyl-lysine antibody” value (HDAC1/2 [3]) was “increased abundance”.
With Cn1c(=O)c2[nH]cnc2n(C)c1=O [theophylline] the “performance on the Rotarod (motor function and coordination)” value ([4]; 14 dpl) was “higher performances”, the “performance on the Rotarod (motor function and coordination)” value ([4]; 30 dpl) was “perform as well as theophylline-treated mice” and the “remyelination of the lesioned spinal cord” value [5] was “strongly enhanced”. The HDAC2 expression levels (HDAC2 [6]) was “increased levels”, the Krox20 levels (HDAC2 [6]) was “high increase; also recorded: increased levels” and the “P0 (myelin protein zero) levels” value (HDAC2 [6]) was “high increase; also recorded: increased levels”. For the same molecule, the Sox10 levels (HDAC2 [6]) was “high increase; also recorded: increased levels”, the “HDAC2 expression in the lesion site of the spinal cord, including differentiated oligodendrocytes (CC1-positive)” value (HDAC2 [7]) was “strongly increases; also recorded: higher amounts of HDAC2” and the “Sox10 levels in the lesion site” value (HDAC2 [7]) was “increases; also recorded: higher levels of Sox10”. For the same molecule, the “myelin basic protein (MBP) levels in the lesion site” value (HDAC2 [7]) was “increases; also recorded: higher myelin content”, the “g-ratio (axon diameter : [axon+myelin] diameter)” value (crushed sciatic nerves; 5 mm distal to lesion site) was “significantly lower” and the myelin sheath thickness (crushed sciatic nerves; 14 dpl) was “thicker myelin sheath”. For the same molecule, the myelin sheath thickness (crushed sciatic nerves; 30 dpl (only 2 animals)) was “presumably also at 30 dpl; also recorded: thicker”, the “toe pinch test, recovery of sensory function” value ([8]; 14 dpl) was “recovered the sensitivity of more toes” and the “toe pinch test, recovery of sensory function” value ([8]; 30 dpl) was “vehicle-treated mice had not yet recovered their sensory function as well as theophylline-treated mice”. The disease progression (multiple sclerosis; 250 mg/day during 1 month in addition to standard interferon-β1a) was “in some cases complete stop of disease progression”, the “remission following an attack (exacerbation)” value (multiple sclerosis; 250 mg/day during 1 month in addition to standard interferon-β1a, vs standard treatment only) was “significantly faster remission” and the life quality (multiple sclerosis; combination therapy with interferon-β1a) was “substantially increased life quality”. For the same molecule, the HDAC2 levels (HDAC2 [9]) was “increases; also recorded: increased levels”, the P0 levels (HDAC2 [9]) was “increases; also recorded: increased levels” and the Sox10 levels (HDAC2 [9]) was “increases; also recorded: increased levels”.
